According to paper PMC9856672, “SGC-CAMKK2-1: A Chemical Probe for CAMKK2” (Cells, 2023):

Key:
[1] = target: T1, RIPK2 (Homo sapiens, UniProt O43353); experiment: KINOMEscan 1 μM, RIPK2; type: binding; conditions: 1000 nM; Entrez RIPK2; read-out: Percent Control
T1 construct: purchased Eurofins DiscoverX KINOMEscan
Text: (§1) Supplement cells-12-00287-s001.zip/File S2. KinomeScan data for the CAMKK2 probe and negative control.xlsx, sheet "SGC-CAMKK2-1" | column: Percent Control

[2] = target: T2, MAP3K3 (Homo sapiens, UniProt Q99759); experiment: KINOMEscan 1 μM, MAP3K3; type: binding; conditions: 1000 nM; Entrez MAP3K3; read-out: Percent Control
T2 construct: purchased Eurofins DiscoverX KINOMEscan
Text: as §1

[3] = target: T3, TNIK (Homo sapiens, UniProt Q9UKE5); experiment: KINOMEscan 1 μM, TNIK; type: binding; conditions: 1000 nM; Entrez TNIK; read-out: Percent Control
T3 construct: purchased Eurofins DiscoverX KINOMEscan
Text: as §1

[4] = target: T4, CAMK1D (Homo sapiens, UniProt Q8IU85); experiment: KINOMEscan 1 μM, CAMK1D; type: binding; conditions: 1000 nM; Entrez CAMK1D; read-out: Percent Control
T4 construct: purchased Eurofins DiscoverX KINOMEscan
Text: as §1

[5] = target: T5, BIKE (Homo sapiens, UniProt Q9NSY1); experiment: KINOMEscan 1 μM, BIKE; type: binding; conditions: 1000 nM; Entrez BMP2K; read-out: Percent Control
T5 construct: purchased Eurofins DiscoverX KINOMEscan
Text: as §1

[6] = target: T6, CSNK2A2 (Homo sapiens, UniProt P19784); experiment: KINOMEscan 1 μM, CSNK2A2; type: binding; conditions: 1000 nM; Entrez CSNK2A2; read-out: Percent Control
T6 construct: purchased Eurofins DiscoverX KINOMEscan
Text: as §1

[7] = target: T7, EPHA6 (Homo sapiens, UniProt Q9UF33); experiment: KINOMEscan 1 μM, EPHA6; type: binding; conditions: 1000 nM; Entrez EPHA6; read-out: Percent Control
T7 construct: purchased Eurofins DiscoverX KINOMEscan
Text: as §1

[8] = target: T8, ERK5 (Homo sapiens, UniProt Q13164); experiment: KINOMEscan 1 μM, ERK5; type: binding; conditions: 1000 nM; Entrez MAPK7; read-out: Percent Control
T8 construct: purchased Eurofins DiscoverX KINOMEscan
Text: as §1

[9] = target: T9, ERK8 (Homo sapiens, UniProt Q8TD08); experiment: KINOMEscan 1 μM, ERK8; type: binding; conditions: 1000 nM; Entrez MAPK15; read-out: Percent Control
T9 construct: purchased Eurofins DiscoverX KINOMEscan
T9 sequence (Q8TD08 whole entry): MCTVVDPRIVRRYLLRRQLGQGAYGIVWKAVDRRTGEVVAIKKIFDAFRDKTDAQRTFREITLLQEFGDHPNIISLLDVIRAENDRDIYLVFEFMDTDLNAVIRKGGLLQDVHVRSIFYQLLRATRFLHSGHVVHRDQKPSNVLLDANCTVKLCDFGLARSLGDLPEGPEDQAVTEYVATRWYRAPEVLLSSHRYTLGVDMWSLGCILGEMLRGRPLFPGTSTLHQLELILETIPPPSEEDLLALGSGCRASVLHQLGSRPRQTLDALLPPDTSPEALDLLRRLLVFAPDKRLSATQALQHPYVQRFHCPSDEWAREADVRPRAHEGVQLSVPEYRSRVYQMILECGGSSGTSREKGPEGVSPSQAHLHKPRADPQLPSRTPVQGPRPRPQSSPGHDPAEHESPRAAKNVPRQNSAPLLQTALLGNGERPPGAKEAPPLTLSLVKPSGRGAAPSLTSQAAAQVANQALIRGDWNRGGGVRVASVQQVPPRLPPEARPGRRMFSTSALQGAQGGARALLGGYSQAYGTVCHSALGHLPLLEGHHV
Text: as §1

[10] = target: T10, FLT3(R834Q) (Homo sapiens, UniProt P36888, R834Q); experiment: KINOMEscan 1 μM, FLT3(R834Q); type: binding; conditions: 1000 nM; Entrez FLT3; read-out: Percent Control
T10 construct: purchased Eurofins DiscoverX KINOMEscan
Text: as §1

[11] = target: T11, GRK3 (Homo sapiens, UniProt P35626); experiment: KINOMEscan 1 μM, GRK3; type: binding; conditions: 1000 nM; Entrez ADRBK2; read-out: Percent Control
T11 construct: purchased Eurofins DiscoverX KINOMEscan
Text: as §1

[12] = target: T12, HIPK4 (Homo sapiens, UniProt Q8NE63); experiment: KINOMEscan 1 μM, HIPK4; type: binding; conditions: 1000 nM; Entrez HIPK4; read-out: Percent Control
T12 construct: purchased Eurofins DiscoverX KINOMEscan
Text: as §1

[13] = target: T13, IKK-epsilon (Homo sapiens, UniProt Q14164); experiment: KINOMEscan 1 μM, IKK-epsilon; type: binding; conditions: 1000 nM; Entrez IKBKE; read-out: Percent Control
T13 construct: purchased Eurofins DiscoverX KINOMEscan
Text: as §1

[14] = target: T14, p38-alpha (Homo sapiens, UniProt Q16539); experiment: KINOMEscan 1 μM, p38-alpha; type: binding; conditions: 1000 nM; Entrez MAPK14; read-out: Percent Control
T14 construct: purchased Eurofins DiscoverX KINOMEscan
T14 sequence (Q16539 whole entry): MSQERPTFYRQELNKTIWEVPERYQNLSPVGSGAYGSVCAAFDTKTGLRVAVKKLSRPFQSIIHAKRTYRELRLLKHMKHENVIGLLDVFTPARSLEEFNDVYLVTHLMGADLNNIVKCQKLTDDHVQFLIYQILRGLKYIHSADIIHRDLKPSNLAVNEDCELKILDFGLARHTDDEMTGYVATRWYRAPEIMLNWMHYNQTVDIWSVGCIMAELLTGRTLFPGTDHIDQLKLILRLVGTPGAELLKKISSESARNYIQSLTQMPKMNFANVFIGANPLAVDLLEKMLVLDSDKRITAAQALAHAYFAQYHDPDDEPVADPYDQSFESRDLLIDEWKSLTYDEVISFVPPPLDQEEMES
Text: as §1

[15] = target: T15, PLK4 (Homo sapiens, UniProt O00444); experiment: DiscoverX KINOMEscan binding assay at 1 μM, PLK4; conditions: Compound Concentration 1000 nM, read-out: Percent Control
T15 construct: purchased Eurofins DiscoverX KINOMEscan
Text: as §1

[16] = target: T16, TRKB (Homo sapiens, UniProt Q16620); experiment: DiscoverX KINOMEscan binding assay at 1 μM, TRKB; conditions: TRKB (NTRK2); Compound Concentration 1000 nM; read-out: Percent Control
T16 construct: purchased Eurofins DiscoverX KINOMEscan
Text: as §1

[17] = target: T17, VPS34 (Homo sapiens, UniProt Q8NEB9); experiment: DiscoverX KINOMEscan binding assay at 1 μM, VPS34; conditions: VPS34 (PIK3C3); Compound Concentration 1000 nM; read-out: Percent Control
T17 construct: purchased Eurofins DiscoverX KINOMEscan
Text: as §1

[18] = target: T18, YANK2 (Homo sapiens, UniProt Q9NY57); experiment: DiscoverX KINOMEscan binding assay at 1 μM, YANK2; conditions: YANK2 (STK32B); Compound Concentration 1000 nM; read-out: Percent Control
T18 construct: purchased Eurofins DiscoverX KINOMEscan
Text: as §1

[19] = target: T19, PIK3CA(C420R) (Homo sapiens, UniProt P42336, C420R); experiment: KINOMEscan at 1 μM, PIK3CA(C420R); type: binding; conditions: 1000 nM, read-out: Percent Control
T19 construct: purchased Eurofins DiscoverX KINOMEscan
Text: (§2) Supplement cells-12-00287-s001.zip/File S2. KinomeScan data for the CAMKK2 probe and negative control.xlsx, sheet "SGC-CAMKK2-1N" | column: Percent Control

[20] = target: T20, CAMK1 (Homo sapiens, UniProt Q14012); experiment: KINOMEscan at 1 μM, CAMK1; type: binding; conditions: 1000 nM, read-out: Percent Control
T20 construct: purchased Eurofins DiscoverX KINOMEscan
Text: as §2

[21] = target: T21, PIM1 (Homo sapiens, UniProt P11309); experiment: KINOMEscan at 1 μM, PIM1; type: binding; conditions: 1000 nM, read-out: Percent Control
T21 construct: purchased Eurofins DiscoverX KINOMEscan
Text: as §2

[22] = target: T22, MKK7 (Homo sapiens, UniProt O14733); experiment: KINOMEscan at 1 μM, MKK7; type: binding; conditions: 1000 nM, read-out: Percent Control
T22 construct: purchased Eurofins DiscoverX KINOMEscan
T22 sequence (O14733 whole entry): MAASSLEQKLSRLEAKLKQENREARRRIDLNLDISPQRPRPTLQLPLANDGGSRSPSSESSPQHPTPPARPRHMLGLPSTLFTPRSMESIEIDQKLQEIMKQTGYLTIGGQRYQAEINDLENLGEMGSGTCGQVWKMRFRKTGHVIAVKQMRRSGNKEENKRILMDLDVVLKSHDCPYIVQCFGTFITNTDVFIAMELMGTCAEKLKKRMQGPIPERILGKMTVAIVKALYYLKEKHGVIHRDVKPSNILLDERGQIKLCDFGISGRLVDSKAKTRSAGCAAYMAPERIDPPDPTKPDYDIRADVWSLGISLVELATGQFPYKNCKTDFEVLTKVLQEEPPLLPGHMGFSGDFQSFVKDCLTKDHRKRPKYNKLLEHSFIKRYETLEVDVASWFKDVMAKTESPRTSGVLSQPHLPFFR
Text: as §2

[23] = target: T23, BLK (Homo sapiens, UniProt P51451); experiment: KINOMEscan at 1 μM, BLK; type: binding; conditions: 1000 nM, read-out: Percent Control
T23 construct: purchased Eurofins DiscoverX KINOMEscan
Text: as §2

[24] = target: T24, CSF1R-autoinhibited (Homo sapiens, UniProt P07333); experiment: KINOMEscan at 1 μM, CSF1R-autoinhibited; type: binding; conditions: 1000 nM, read-out: Percent Control
T24 construct: purchased Eurofins DiscoverX KINOMEscan
Text: as §2

[25] = target: T25, MAP4K3 (Homo sapiens, UniProt Q8IVH8); experiment: KINOMEscan at 1 μM, MAP4K3; type: binding; conditions: 1000 nM, read-out: Percent Control
T25 construct: purchased Eurofins DiscoverX KINOMEscan
T25 sequence (Q8IVH8 whole entry): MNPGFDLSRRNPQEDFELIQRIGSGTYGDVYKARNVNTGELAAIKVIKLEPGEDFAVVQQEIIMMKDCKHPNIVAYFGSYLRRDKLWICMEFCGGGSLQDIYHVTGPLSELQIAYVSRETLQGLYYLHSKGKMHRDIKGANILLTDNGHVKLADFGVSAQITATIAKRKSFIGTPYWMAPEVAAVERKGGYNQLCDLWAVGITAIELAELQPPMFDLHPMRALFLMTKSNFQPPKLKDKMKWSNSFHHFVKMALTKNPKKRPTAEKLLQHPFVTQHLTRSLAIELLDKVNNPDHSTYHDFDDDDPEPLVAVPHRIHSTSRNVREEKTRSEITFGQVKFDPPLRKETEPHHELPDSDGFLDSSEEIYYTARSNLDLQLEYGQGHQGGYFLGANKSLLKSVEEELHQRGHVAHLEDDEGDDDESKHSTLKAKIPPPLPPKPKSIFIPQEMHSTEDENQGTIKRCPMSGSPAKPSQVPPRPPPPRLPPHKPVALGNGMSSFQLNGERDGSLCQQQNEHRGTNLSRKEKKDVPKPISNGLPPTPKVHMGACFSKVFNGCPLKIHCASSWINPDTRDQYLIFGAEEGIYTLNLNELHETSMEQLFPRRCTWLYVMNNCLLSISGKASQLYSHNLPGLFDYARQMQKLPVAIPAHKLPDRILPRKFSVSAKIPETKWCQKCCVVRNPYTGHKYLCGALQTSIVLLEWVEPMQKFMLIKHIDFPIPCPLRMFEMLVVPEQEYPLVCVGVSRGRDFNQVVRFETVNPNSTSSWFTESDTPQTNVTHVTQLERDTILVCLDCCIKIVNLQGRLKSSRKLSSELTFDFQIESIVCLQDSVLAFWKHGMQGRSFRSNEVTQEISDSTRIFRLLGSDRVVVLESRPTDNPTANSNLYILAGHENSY
Text: as §2

[26] = target: T26, DDR1 (Homo sapiens, UniProt Q08345); experiment: KINOMEscan at 1 μM, DDR1; type: binding; conditions: 1000 nM, read-out: Percent Control
T26 construct: purchased Eurofins DiscoverX KINOMEscan
Text: as §2

[27] = target: T27, CSNK1D (Homo sapiens, UniProt P48730); experiment: KINOMEscan at 1 μM, CSNK1D; type: binding; conditions: 1000 nM, read-out: Percent Control
T27 construct: purchased Eurofins DiscoverX KINOMEscan
Text: as §2

[28] = target: T28, CAMK4 (Homo sapiens, UniProt Q16566); experiment: KINOMEscan at 1 μM, CAMK4; type: binding; conditions: 1000 nM, read-out: Percent Control
T28 construct: purchased Eurofins DiscoverX KINOMEscan
T28 sequence (Q16566 whole entry): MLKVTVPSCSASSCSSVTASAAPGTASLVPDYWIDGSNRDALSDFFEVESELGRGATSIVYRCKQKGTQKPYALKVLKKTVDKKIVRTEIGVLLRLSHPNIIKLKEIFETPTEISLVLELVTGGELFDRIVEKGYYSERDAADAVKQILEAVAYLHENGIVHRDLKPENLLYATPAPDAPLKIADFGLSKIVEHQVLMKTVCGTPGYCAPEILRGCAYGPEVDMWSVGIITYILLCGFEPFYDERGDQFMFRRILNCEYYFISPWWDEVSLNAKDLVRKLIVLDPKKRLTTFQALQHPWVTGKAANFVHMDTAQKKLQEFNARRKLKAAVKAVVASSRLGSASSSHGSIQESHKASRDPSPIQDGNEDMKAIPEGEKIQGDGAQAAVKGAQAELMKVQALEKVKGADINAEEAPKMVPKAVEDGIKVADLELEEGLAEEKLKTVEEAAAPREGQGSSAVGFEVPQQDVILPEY
Text: as §2

[29] = target: T29, EGFR(G719C) (Homo sapiens, UniProt P00533, G719C); experiment: KINOMEscan binding assay at 1 μM, EGFR(G719C); conditions: Compound Concentration 1000 nM; read-out: Percent Control
T29 construct: purchased Eurofins DiscoverX KINOMEscan
Text: as §2

[30] = target: T30, GSK3A (Homo sapiens, UniProt P49840); experiment: KINOMEscan binding assay at 1 μM, GSK3A; conditions: Compound Concentration 1000 nM; read-out: Percent Control
T30 construct: purchased Eurofins DiscoverX KINOMEscan
T30 sequence (P49840 whole entry): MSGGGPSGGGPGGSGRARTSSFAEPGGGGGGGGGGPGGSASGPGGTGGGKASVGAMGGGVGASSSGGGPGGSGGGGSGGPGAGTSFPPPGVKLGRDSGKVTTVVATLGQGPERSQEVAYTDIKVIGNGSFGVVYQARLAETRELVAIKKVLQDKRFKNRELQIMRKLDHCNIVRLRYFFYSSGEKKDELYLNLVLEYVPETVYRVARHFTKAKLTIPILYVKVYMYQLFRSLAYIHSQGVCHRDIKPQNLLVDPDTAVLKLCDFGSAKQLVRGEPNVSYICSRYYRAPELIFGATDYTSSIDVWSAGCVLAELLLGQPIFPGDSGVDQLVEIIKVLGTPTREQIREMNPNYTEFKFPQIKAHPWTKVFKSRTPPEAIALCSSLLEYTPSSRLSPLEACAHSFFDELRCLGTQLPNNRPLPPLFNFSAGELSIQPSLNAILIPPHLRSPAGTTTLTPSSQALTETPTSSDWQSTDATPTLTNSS
Text: as §2

[31] = target: T31, p38-gamma (Homo sapiens, UniProt P53778); experiment: KINOMEscan binding assay at 1 μM, p38-gamma; conditions: Compound Concentration 1000 nM; read-out: Percent Control
T31 construct: purchased Eurofins DiscoverX KINOMEscan
T31 sequence (P53778 whole entry): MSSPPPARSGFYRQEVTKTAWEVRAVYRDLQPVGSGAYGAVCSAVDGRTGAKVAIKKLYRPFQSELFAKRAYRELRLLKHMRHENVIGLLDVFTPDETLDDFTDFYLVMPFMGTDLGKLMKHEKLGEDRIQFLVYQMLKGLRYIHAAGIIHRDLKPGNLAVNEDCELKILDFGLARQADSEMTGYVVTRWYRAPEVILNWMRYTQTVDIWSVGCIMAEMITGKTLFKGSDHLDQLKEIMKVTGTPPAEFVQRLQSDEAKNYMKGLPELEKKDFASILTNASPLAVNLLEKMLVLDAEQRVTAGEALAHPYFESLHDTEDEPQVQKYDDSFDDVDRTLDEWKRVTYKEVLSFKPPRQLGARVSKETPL
Text: as §2

[32] = target: T32, PDPK1 (Homo sapiens, UniProt O15530); experiment: KINOMEscan binding assay at 1 μM, PDPK1; conditions: Compound Concentration 1000 nM; read-out: Percent Control
T32 construct: purchased Eurofins DiscoverX KINOMEscan
T32 sequence (O15530 whole entry): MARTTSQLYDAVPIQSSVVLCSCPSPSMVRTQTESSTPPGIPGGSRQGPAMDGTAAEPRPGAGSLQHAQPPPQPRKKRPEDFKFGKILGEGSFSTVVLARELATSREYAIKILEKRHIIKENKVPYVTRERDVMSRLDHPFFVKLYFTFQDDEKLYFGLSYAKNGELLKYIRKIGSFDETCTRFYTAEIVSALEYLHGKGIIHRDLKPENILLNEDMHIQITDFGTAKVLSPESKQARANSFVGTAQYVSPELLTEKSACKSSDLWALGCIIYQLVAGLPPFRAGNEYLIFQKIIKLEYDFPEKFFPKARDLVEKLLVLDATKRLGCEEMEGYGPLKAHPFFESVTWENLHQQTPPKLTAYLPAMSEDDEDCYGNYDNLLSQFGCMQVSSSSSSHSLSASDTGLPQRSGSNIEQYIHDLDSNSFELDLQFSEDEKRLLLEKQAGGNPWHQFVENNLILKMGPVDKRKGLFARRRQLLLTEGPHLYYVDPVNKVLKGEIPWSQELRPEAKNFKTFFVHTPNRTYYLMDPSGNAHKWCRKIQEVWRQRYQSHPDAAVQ
Text: as §2

[33] = target: T33, TYRO3 (Homo sapiens, UniProt Q06418); experiment: KINOMEscan binding assay at 1 μM, TYRO3; conditions: Compound Concentration 1000 nM; read-out: Percent Control
T33 construct: purchased Eurofins DiscoverX KINOMEscan
T33 sequence (Q06418 41-890): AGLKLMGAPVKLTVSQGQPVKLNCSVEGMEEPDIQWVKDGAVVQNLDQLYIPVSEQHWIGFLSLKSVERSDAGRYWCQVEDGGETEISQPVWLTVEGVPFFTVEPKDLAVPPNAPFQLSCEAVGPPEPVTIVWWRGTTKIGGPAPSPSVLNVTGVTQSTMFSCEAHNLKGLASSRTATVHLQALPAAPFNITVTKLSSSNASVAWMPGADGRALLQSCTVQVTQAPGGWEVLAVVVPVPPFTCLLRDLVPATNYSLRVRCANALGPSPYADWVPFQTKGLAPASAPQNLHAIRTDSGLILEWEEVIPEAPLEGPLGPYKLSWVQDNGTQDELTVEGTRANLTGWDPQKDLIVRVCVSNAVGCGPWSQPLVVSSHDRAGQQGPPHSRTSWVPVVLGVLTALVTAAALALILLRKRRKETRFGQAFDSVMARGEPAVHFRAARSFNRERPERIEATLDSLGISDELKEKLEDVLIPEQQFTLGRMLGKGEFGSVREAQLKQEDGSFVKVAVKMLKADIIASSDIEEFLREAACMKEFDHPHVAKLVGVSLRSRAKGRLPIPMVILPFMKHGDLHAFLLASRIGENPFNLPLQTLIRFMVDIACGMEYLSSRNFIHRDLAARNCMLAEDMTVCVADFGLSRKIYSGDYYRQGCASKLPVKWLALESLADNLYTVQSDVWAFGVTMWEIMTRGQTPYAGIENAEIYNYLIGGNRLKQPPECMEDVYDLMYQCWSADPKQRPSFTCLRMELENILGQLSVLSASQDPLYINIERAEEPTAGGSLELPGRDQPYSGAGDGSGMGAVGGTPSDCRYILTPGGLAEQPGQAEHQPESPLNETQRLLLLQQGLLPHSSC
Text: as §2

Cc1cccc(-c2cnc3occ(-c4ccc(C(=O)O)c(C5CCCC5)c4)c3c2)c1 [SGC-CAMKK2-1 (YL-36)]
remaining binding at 1 µM [1]: 55%
remaining binding at 1 µM [2]: 88%
remaining binding at 1 µM [3]: 92%
remaining binding at 1 µM [4]: 94%
remaining binding at 1 µM [5]: 100%
remaining binding at 1 µM [6]: 100%
remaining binding at 1 µM [7]: 100%
remaining binding at 1 µM [8]: 100%
remaining binding at 1 µM [9]: 100%
remaining binding at 1 µM [10]: 100%
remaining binding at 1 µM [11]: 100%
remaining binding at 1 µM [12]: 100%
remaining binding at 1 µM [13]: 100%
remaining binding at 1 µM [14]: 100%
remaining binding at 1 µM [15]: 100%
remaining binding at 1 µM [16]: 100%
remaining binding at 1 µM [17]: 100%
remaining binding at 1 µM [18]: 100%

O=C(O)c1ccc(-c2coc3ncc(-c4ccccc4)cc23)cc1Cl [SGC-CAMKK2-1N (UNC-YL-83)]
remaining binding at 1 µM [19]: 0%
remaining binding at 1 µM [20]: 62%
remaining binding at 1 µM [21]: 75%
remaining binding at 1 µM [22]: 82%
remaining binding at 1 µM [23]: 87%
remaining binding at 1 µM [24]: 89%
remaining binding at 1 µM [25]: 91%
remaining binding at 1 µM [26]: 93%
remaining binding at 1 µM [27]: 99%
remaining binding at 1 µM [28]: 100%
remaining binding at 1 µM [29]: 100%
remaining binding at 1 µM [30]: 100%
remaining binding at 1 µM [31]: 100%
remaining binding at 1 µM [32]: 100%
remaining binding at 1 µM [33]: 100%
